IC50 data for 28 molecules are collected here from patent publication US20260250290A1 (BRISTOL-MYERS SQUIBB COMPANY, priority 2023, published 2026).

The term IC50 denotes the concentration at which inhibition is half-maximal.

The target in the experiment is T1, full length SGK1 (Homo sapiens, UniProt O00141).
T1 construct: 125 μM full length SGK1 (Life Technologies Part #PR7358A); purchased Life Technologies PR7358A
T1 sequence (O00141 1-431): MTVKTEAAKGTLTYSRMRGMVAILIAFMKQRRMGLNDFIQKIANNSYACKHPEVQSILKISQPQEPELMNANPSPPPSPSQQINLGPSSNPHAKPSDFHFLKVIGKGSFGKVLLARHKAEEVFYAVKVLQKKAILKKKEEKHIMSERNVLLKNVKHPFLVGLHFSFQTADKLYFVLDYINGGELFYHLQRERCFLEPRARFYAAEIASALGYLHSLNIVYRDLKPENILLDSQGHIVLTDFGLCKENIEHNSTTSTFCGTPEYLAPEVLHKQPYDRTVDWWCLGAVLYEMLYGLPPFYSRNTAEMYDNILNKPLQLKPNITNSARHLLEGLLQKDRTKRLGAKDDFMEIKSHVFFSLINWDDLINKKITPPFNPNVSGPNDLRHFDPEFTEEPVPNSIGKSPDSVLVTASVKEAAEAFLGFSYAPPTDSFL
Briefly: SGK1 inhibition Assay A (Caliper LabChip electrophoretic separation of fluorescent peptide substrate and phosphorylated product). The experiment is classed as biochemical. Particulars: Assay A; 20 μM ATP, 40 min incubation; read-out: SGK1 IC50.

Regarding `CC(=O)N1CC=C(c2cc(N3CCC[C@@H](NC(=O)c4cccc(C5CC5)n4)C3)c3c(N)ncnn23)C1` [Example 710, (R)-N-(1-(7-(1-acetyl-2,5-dihydro-1H-pyrrol-3-yl)-4-aminopyrrolo[2,1-f][1,2,4]triazin-5-yl)piperidin-3-yl)-6-cyclopropylpicolinamide,], the IC50 came to 13 nM. Next, `CC(=O)N1CC=C(c2cc(N3CCC[C@@H](NC(=O)C4CC(F)(F)C4)C3)c3c(N)ncnn23)C1` [Example 711, (R)-N-(1-(7-(1-acetyl-2,5-dihydro-1H-pyrrol-3-yl)-4-aminopyrrolo[2,1-f][1,2,4]triazin-5-yl)piperidin-3-yl)-3,3-difluorocyclobutane-1-carboxamide]: 997 nM; `CC(=O)N1CC=C(c2cc(N3CCC[C@@H](NC(=O)C4CCC(F)(F)C4)C3)c3c(N)ncnn23)C1` (stereo partly drawn) [Example 712, N-((R)-1-(7-(1-acetyl-2,5-dihydro-1H-pyrrol-3-yl)-4-aminopyrrolo[2,1-f][1,2,4]triazin-5-yl)piperidin-3-yl)-3,3-difluorocyclopentane-1-carboxamide]: 1300 nM. The figure for `CC(=O)N1CC=C(c2cc(N3CCC[C@@H](NC(=O)c4ccnc(OCCN5CCN(C)CC5)c4)C3)c3c(N)ncnn23)C1` [Example 713] is 59 nM.

On to `CC(=O)N1CC=C(c2cc(N3CCC[C@@H](NC(=O)c4ccc(C#N)s4)C3)c3c(N)ncnn23)C1` [Example 714, (R)-N-(1-(7-(1-acetyl-2,5-dihydro-1H-pyrrol-3-yl)-4-aminopyrrolo[2,1-f][1,2,4]triazin-5-yl)piperidin-3-yl)-5-cyanothiophone-2-carboxamide], for which the IC50 is 7 nM.

For `COc1cccc(C(=O)N[C@@H]2CCCN(c3cc(C4=CCN(C(C)=O)C4)n4ncnc(N)c34)C2)n1` [Example 715, (R)-N-(1-(7-(1-acetyl-2,5-dihydro-1H-pyrrol-3-yl)-4-aminopyrrolo[2,1-f][1,2,4]triazin-5-yl)piperidin-3-yl)-6-methoxypicolinamide], the IC50 turned out to be 22 nM. As for `COc1cc(C(=O)N[C@@H]2CCCN(c3cc(C4=CCN(C(C)=O)C4)n4ncnc(N)c34)C2)ccn1` [Example 716, (R)-N-(1-(7-(1-acetyl-2,5-dihydro-1H-pyrrol-3-yl)-4-aminopyrrolo[2,1-f][1,2,4]triazin-5-yl)piperidin-3-yl)-2-methoxyisonicotinamide], the IC50 came to 23 nM. For `CC(=O)N1CC=C(c2cc(N3CCC[C@@H](NC(=O)c4ccnc(N(C)C)c4)C3)c3c(N)ncnn23)C1` [Example 717], the IC50 was 39 nM.

Turning to `COc1ncccc1C(=O)N[C@@H]1CCCN(c2cc(C3=CCN(C(C)=O)C3)n3ncnc(N)c23)C1` [Example 718, (R)-N-(1-(7-(1-acetyl-2,5-dihydro-1H-pyrrol-3-yl)-4-aminopyrrolo[2,1-f][1,2,4]triazin-5-yl)piperidin-3-yl)-2-methoxynicotinamide], the IC50 was 26 nM.

`CC(=O)N1CC=C(c2cc(N3CCC[C@@H](NC(=O)c4csc(Cl)c4)C3)c3c(N)ncnn23)C1` [Example 719]: the IC50 is 5 nM. For `CC(=O)N1CC=C(c2cc(N3CCC[C@@H](NC(=O)c4csc(C)c4)C3)c3c(N)ncnn23)C1` [Example 720, (R)-N-(1-(7-(1-acetyl-2,5-dihydro-1H-pyrrol-3-yl)-4-aminopyrrolo[2,1-f][1,2,4]triazin-5-yl)piperidin-3-yl)-5-methylthiophene-3-carboxamide], the IC50 is 5 nM. `COc1cscc1C(=O)N[C@@H]1CCCN(c2cc(C3=CCN(C(C)=O)C3)n3ncnc(N)c23)C1` [Example 721, (R)-N-(1-(7-(1-acetyl-2,5-dihydro-1H-pyrrol-3-yl)-4-aminopyrrolo[2,1-f][1,2,4]triazin-5-yl)piperidin-3-yl)-4-methoxythiophene-3-carboxamide]: the IC50 turned out to be 10 nM.

For the molecule `CC(=O)N1CC=C(c2cc(N3CCC[C@@H](NC(=O)c4cccnc4OCCN4CCN(C)CC4)C3)c3c(N)ncnn23)C1` [Example 722, (R)-N-(1-(7-(1-acetyl-2,5-dihydro-1H-pyrrol-3-yl)-4-aminopyrrolo[2,1-f][1,2,4]triazin-5-yl)piperidin-3-yl)-2-(2-(4-methylpiperazin-1-yl)ethoxy)nicotinamide], the IC50 was 114 nM.

As for `CC(=O)N1CC=C(c2cc(N3CCC[C@@H](NC(=O)c4cccnc4OCCN(C)C)C3)c3c(N)ncnn23)C1` [Example 723, (R)-N-(1-(7-(1-acetyl-2,5-dihydro-1H-pyrrol-3-yl)-4-aminopyrrolo[2,1-f][1,2,4]triazin-5-yl)piperidin-3-yl)-2-(2-(dimethylamino)ethoxy) nicotinamide], the IC50 was determined as 267 nM. On to `CC(=O)N1CC=C(c2cc(N3CCC[C@@H](NC(=O)c4cccc(N(C)C)n4)C3)c3c(N)ncnn23)C1` [Example 725, (R)-N-(1-(7-(1-acetyl-2,5-dihydro-1H-pyrrol-3-yl)-4-aminopyrrolo[2,1-f][1,2,4]triazin-5-yl)piperidin-3-yl)-6-(dimethylamino) picolinamide], for which the IC50 was determined as 26 nM.

As to `CC(=O)N1CC=C(c2cc(N3CCC[C@@H](NC(=O)c4cccc(F)n4)C3)c3c(N)ncnn23)C1` [Example 726, :(R)-N-(1-(7-(1-acetyl-2,5-dihydro-1H-pyrrol-3-yl)-4-aminopyrrolo[2,1-f][1,2,4]triazin-5-yl)piperidin-3-yl)-6-fluoropicolinamide], the IC50 is 61 nM. Consider `CC(=O)N1CC=C(c2cc(N3CCC[C@@H](NC(=O)c4cccc(CN5CCN(C)CC5)n4)C3)c3c(N)ncnn23)C1` [Example 727, (R)-N-(1-(7-(1-acetyl-2,5-dihydro-1H-pyrrol-3-yl)-4-aminopyrrolo[2,1-f][1,2,4]triazin-5-yl)piperidin-3-yl)-6-((4-methylpiperazin-1-yl)methyl)picolinamide], for which the IC50 turned out to be 161 nM. As to `CC(=O)N1CC=C(c2cc(N3CCC[C@@H](NC(=O)c4ccccn4)C3)c3c(N)ncnn23)C1` [Example 728, (R)-N-(1-(7-(1-acetyl-2,5-dihydro-1H-pyrrol-3-yl)-4-aminopyrrolo[2,1-f][1,2,4]triazin-5-yl)piperidin-3-yl)picolinamide], the IC50 amounted to 81 nM. For `CC(=O)N1CC=C(c2cc(N3CCC[C@@H](NC(=O)c4cccnc4)C3)c3c(N)ncnn23)C1` [Example 729, (R)-N-(1-(7-(1-acetyl-2,5-dihydro-1H-pyrrol-3-yl)-4-aminopyrrolo[2,1-f][1,2,4]triazin-5~ yl)piperidin-3-yl)nicotinamide], the IC50 worked out at 111 nM. As for `CC(=O)N1CC=C(c2cc(N3CCC[C@@H](NC(=O)c4ccncc4)C3)c3c(N)ncnn23)C1` [Example 730, (R)-N-(1-(7-(1-acetyl-2,5-dihydro-1H-pyrrol-3-yl)-4-aminopyrrolo[2,1-f][1,2,4]triazin-5-yl)piperidin-3-yl)isonicotinamide], the IC50 stood at 26 nM. Turning to `CC(=O)N1CC=C(c2cc(N3CCC[C@@H](NC(=O)c4ccc(Cl)s4)C3)c3c(N)ncnn23)C1` [Example 731, (R)-N-(1-(7-(1-acctyl-2,5-dihydro-1H-pyrrol-3-yl)-4-aminopyrrolo[2,1-f][1,2,4]triazin-5-yl)piperidin-3-yl)-5-chlorothiophene-2-carboxamide], the IC50 is 6 nM. Next, `CC(=O)N1CC=C(c2cc(N3CCC[C@@H](NC(=O)c4cc(C)cc(N5CCN(C)CC5)n4)C3)c3c(N)ncnn23)C1` [Example 732, (R)-N-(1-(7-(1-acetyl-2,5-dihydro-1H-pyrrol-3-yl)-4-aminopyrrolo[2,1-f][1,2,4]triazin-5-yl)piperidin-3-yl)-4-methyl-6-(4-methylpiperazin-1-yl)picolinamide]: 25 nM; `CC(=O)N1CC=C(c2cc(N3CCC[C@@H](NC(=O)c4cccc(OCC5CN(C)C5)n4)C3)c3c(N)ncnn23)C1` [Example 733, (R)-N-(1-(7-(1-acetyl-2,5-dihydro-1H-pyrrol-3-yl)-4-aminopyrrolo[2,1-f][1,2,4]triazin-5-yl)piperidin-3-yl)-6-((1-methylazetidin-3-yl)methoxy)picolinamide]: 23 nM. The figure for `CC(=O)N1CC=C(c2cc(N3CCC[C@@H](NC(=O)c4cccc(OC5CN6CCC5CC6)n4)C3)c3c(N)ncnn23)C1` (stereo partly drawn) [Example 734, N-((R)-1-(7-(1-acetyl-2,5-dihydro-1H-pyrrol-3-yl)-4-aminopyrrolo[2,1-f][1,2,4]triazin-5-yl)piperidin-3-yl)-6-(quinuclidin-3-yloxy)picolinamide] is 10 nM; for `CC(=O)N1CC=C(c2cc(N3CCC[C@@H](NC(=O)c4cccc(N5CCN(C)CC5)c4)C3)c3c(N)ncnn23)C1` [Example 735, (R)-N-(1-(7-(1-acetyl-2,5-dihydro-1H-pyrrol-3-yl)-4-aminopyrrolo[2,1-f][1,2,4]triazin-5-yl)piperidin-3-yl)-3-(4-methylpiperazin-1-yl)benzamide] it is 21 nM. For the molecule `CC(=O)N1CC=C(c2cc(N3CCC[C@@H](NC(=O)c4cncc(N5CCN(C)CC5)n4)C3)c3c(N)ncnn23)C1` [Example 736], the IC50 came to 48 nM. The figure for `CC(=O)N1CC=C(c2cc(N3CCC[C@@H](NC(=O)c4ccn(C(F)F)n4)C3)c3c(N)ncnn23)C1` [Example 737] is 10 nM. The figure for `CC(=O)N1CC=C(c2cc(N3CCC[C@@H](NC(=O)c4ccn(C)n4)C3)c3c(N)ncnn23)C1` [Example 738, (R)-N-(1-(7-(1-acetyl-2,5-dihydro-1H-pyrrol-3-yl)-4-aminopyrrolo[2,1-f][1,2,4]triazin-5-yl)piperidin-3-yl)-1-methyl-1H-pyrazole-3-carboxamide] is 115 nM.
